Test results reported in paper PMC12669040, “Tumour-specific STING agonist synthesis via a two-component prodrug system” (Nature Chemistry, 2025).
“And” between values parts separate entries of the source, which are not always exact repeats. Identical values can stand only once. Like-named read-outs stand apart in the source and are kept apart here.

Columns and labels:
[1] = test system: THP-1 Lucia ISG cells (interferon pathway); assay: Potency test of purified dimers on THP-1 Lucia ISG reporter cells; type: cell-based, human; conditions: for Raw readings: replicates 1-3
Experimental: Cells were pelleted (150g, 10 min) and resuspended in the growth medium (40% conditioned) at a density of 1 × 10^6 cells ml^−1. The cell suspension was dispensed (50 µl each well) into a lidded white 96-well plate (BrandTech 781665). Test compounds or DMSO control were diluted in the growth medium and sterilized by filtering through 0.22-µm polyethersulfone (PES) membranes (Merck SLGP033RS). […] Upon cooling down to room temperature, 50 µl of reconstituted luciferase substrate (InvivoGen QUANTI-Luc) was added to each well via the injector of the plate reader (Molecular Devices SpectraMax i3x), and the luminescence output was recorded (4 s delay, 0.1 s integration). Raw signals were divided by the averaged signal of the DMSO-treated control wells and reported in relative luminescence unit (RLU). The dose–response curve of each replicate was fitted individually using the standard 4PL model (GraphPad Prism). The EC50 value of each compound was averaged from three independent experiments and reported as mean ± s.e.m.

[2] = biological target: T1, wild-type human STING LBD (hSTINGwt 138-379) (Homo sapiens, UniProt Q86WV6, H232R); assay: Isothermal titration calorimetry (ITC), reverse titration; type: binding
T1 construct: SUMO (N, cleaved yes); made in house; host or cells: Escherichia coli BL21 (DE3)
Experimental: Escherichia coli BL21 (DE3) (Thermo Scientific EC0114) was transformed with a pET28a plasmid (Genscript) harbouring the codon-optimized sequence of SUMO-hSTINGwt (aa138-379). Transformed BL21 cells were inoculated into LB medium (50 µg ml^−1 kanamycin) and incubated at 180 rpm, 37 °C overnight. The overnight culture was then diluted (1:100 dilution) in 2× YT medium (50 µg ml^−1 kanamycin) and incubated at 180 rpm, 37 °C until optical density at 600 nm (OD600) reached 0.6 (approximately 3 h). The bacterial culture was then cooled to 16 °C, induced with 0.5 mM isopropyl 1-thio-D-galactopyranoside and incubated overnight at 180 rpm, 16 °C. The bacterial cells were pelleted at 4,000g for 30 min, resuspended in 20 ml of lysis buffer (25 mM HEPES pH 7.5, 150 mM NaCl, 20 mM imidazole and 2 mM TCEP supplied with 2 tablets of cOmplete mini EDTA-free protease inhibitors) and disrupted by sonication on ice. The total lysate was clarified by centrifugation at 22,000g for 30 min. The supernatant was collected and filtered through a 0.45-µm filter (Millipore SLHAR33SS). The clarified lysate was then incubated on a roller with 10 ml bed volume of Ni-NTA resin (Thermo Scientific 88223) at 4 °C for 1 h. The Ni-NTA resin was then packed in a column, flushed with 20 ml of wash buffer (25 mM HEPES pH 7.5, 150 mM NaCl and 20 mM imidazole) and eluted with 40 ml of elution buffer (25 mM HEPES pH 8.0, 150 mM NaCl and 250 mM imidazole). The eluted protein was concentrated to approximately 5 ml (Millipore Amicon 10 kDa molecular weight cut-off (MWCO)) and buffer-exchanged into storage buffer (25 mM HEPES pH 7.5 and 150 mM NaCl). TCEP was then added to a final concentration of 2 mM, and 250 units of SUMO protease (Merck SAE0067) were added. The cleavage reaction mixture was left to stand at 4 °C overnight until LC–MS analysis indicated the completion of the cleavage reaction. The cleavage mixture was incubated with 10 ml bed volume of Ni-NTA resin on a roller at 4 °C for 1 h and packed in a disposable column. The flowthrough was collected, and the resin was further flushed with 20 ml of wash buffer. The eluted fractions were combined, concentrated and further purified by size-exclusion chromatography (Cytiva, Superdex 200 Increase 10/300 GL). The purified protein in storage buffer was concentrated to 330 µM (dimer concentration) as determined by bicinchoninic acid (BCA) assay, aliquoted, flash-frozen in liquid nitrogen and stored at −80 °C for future use.
The binding constants of purified dimers were measured by ITC (Malvern Panalytical AutoITC200) in a reverse-titration format. Stock DMSO solutions of each dimer were dissolved in titration buffer (25 mM HEPES pH 7.5 and 150 mM NaCl) to a final concentration of 25 µM and added to the titration cell. The syringe was filled with 250 µM of purified STING in a matching buffer. Titration was performed at 25 °C with the following parameters: 750 rpm stirring, 0.2 µl initial injection followed by 2-µl injections of the […] every 120 s. Titration of STING protein into blank buffer was separately performed and subtracted from the raw data before the analysis. The background-subtracted titration curves were fitted with the built-in Origin software using the standard one-site model.
Extended Data Fig. 2 Isothermal titration calorimetry (ITC) data for binding constant measurements. Purified hSTINGwt138-379 (250 μM of homodimer) was titrated into each dimer (25 μM) dissolved in a matching buffer (25 mM HEPES pH 7.5, 150 mM NaCl) at 25 °C and 750 rpm stirring. Binding constants were reported as the average from duplicate measurements.

[3] = test system: THP-1 cells; assay: Dilution limits of N1/E4 combination to activate THP-1 cells (IFN-β ELISA); conditions: IFN-β secretion, 6 h, single component
[4] = substrate: COc1cc2sc(C(=O)CCC(=O)O)cc2cc1SCO[C@@H]1O[C@H](C(=O)O)[C@@H](O)[C@H](O)[C@H]1O; assay: Michaelis–Menten kinetics of β-GlcA-N1 cleavage; type: biochemical, human; conditions: other: 37 °C, 0.2 M sodium acetate pH 4.5, 67 nM enzyme
Experimental: Human β-glucuronidase (AcroBiosystems BEB-H52H3) was reconstituted in deionized water to a concentration of 1 mg ml^−1. The enzyme stock solution was further diluted in assay buffer (0.2 M acetate pH 4.5) to 10 μg ml^−1 (134 nM). β-GlcA-N1 (50 mM DMSO stock) was twofold serially diluted in assay buffer from 5 to 0.078 mM. The enzyme solution and diluted β-GlcA-N1 were incubated in a transparent 96-well plate and incubated at 37 °C until thermo equilibrium was reached. Then, 100 µl of β-GlcA-N1 at various concentrations was mixed with 100 µl of β-glucuronidase using a multichannel pipette, resulting in the following initial condition: [β-GlcA-N1] = 2.5, 1.25, 0.62, 0.31, 0.16, 0.08 and 0.04 mM; [β-glucuronidase] = 67 nM; 5% DMSO (v/v). The reactions were incubated at 37 °C. At 30-min and 60-min timepoints, a 50-µl portion was withdrawn from each reaction mixture and mixed with 50 µl of quenching buffer (1 M sodium carbonate, 1 mM TCEP). The concentration of liberated N1 was determined by comparing the absorbance of each quenched reaction at 410 nm to a calibration curve of purified N1. Reaction velocities were calculated from the slopes of [N1] versus time plots. The velocity versus [β-GlcA-N1] plot was then fitted with the standard Michaelis–Menten kinetic model (GraphPad Prism).

[5] = biological target: the molecule itself; assay: crystal structure; STING LBD (247 µM) with compound D5 (2.2 mM), sitting drops, 20 °C; 2.31 Å

T1 sequence (Q86WV6 138-379 H232R): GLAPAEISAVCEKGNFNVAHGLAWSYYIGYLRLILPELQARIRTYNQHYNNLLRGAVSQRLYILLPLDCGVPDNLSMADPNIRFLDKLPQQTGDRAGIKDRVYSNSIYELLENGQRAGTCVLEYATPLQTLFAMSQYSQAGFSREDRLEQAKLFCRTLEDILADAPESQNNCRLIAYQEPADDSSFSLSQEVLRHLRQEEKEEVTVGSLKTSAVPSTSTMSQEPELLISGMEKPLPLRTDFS

COc1cc2sc(C(=O)CCC(=O)O)cc2cc1CSCc1cc2cc(C(=O)CCC(=O)O)sc2cc1OC [Compound D7]
Raw readings ([1]; Conc 0.508053 nM): 1113 RLU and 627 RLU and 644 RLU | Raw readings ([1]; Conc 1.52416 nM): 1094 RLU and 992 RLU and 1053 RLU | Raw readings ([1]; Conc 4.57247 nM): 783 RLU and 1083 RLU and 911 RLU | Raw readings ([1]; Conc 13.7174 nM): 1811 RLU and 3669 RLU and 2075 RLU | Raw readings ([1]; Conc 41.1523 nM): 26401 RLU and 56159 RLU and 31852 RLU | Raw readings ([1]; Conc 123.457 nM): 95964 RLU and 153788 RLU and 83328 RLU | Raw readings ([1]; Conc 370.37 nM): 127337 RLU and 208679 RLU and 128863 RLU | Raw readings ([1]; Conc 1111.11 nM): 148790 RLU and 255878 RLU and 161073 RLU | Raw readings ([1]; Conc 3333.33 nM): 168239 RLU and 288236 RLU and 165803 RLU | Raw readings ([1]; Conc 10000 nM): 170045 RLU and 271936 RLU and 154582 RLU | fold induction at 0.00152416 µM ([1]; Homo sapiens, THP1-Lucia ISG, 24 h, Concentration 1.52416 nM, three replicates, read-out: Processed reporter response per replicate (reading relative to DMSO)): 1.5 | fold induction at 0.00457247 µM ([1]; Homo sapiens, THP1-Lucia ISG, 24 h, Concentration 4.57247 nM, three replicates, read-out: Processed reporter response per replicate (reading relative to DMSO)): 1.07 | fold induction at 0.0137174 µM ([1]; Homo sapiens, THP1-Lucia ISG, 24 h, Concentration 13.7174 nM, three replicates, read-out: Processed reporter response per replicate (reading relative to DMSO)): 2.48 | fold induction at 0.0411523 µM ([1]; Homo sapiens, THP1-Lucia ISG, 24 h, Concentration 41.1523 nM, three replicates, read-out: Processed reporter response per replicate (reading relative to DMSO)): 36.1 | fold induction at 0.123457 µM ([1]; Homo sapiens, THP1-Lucia ISG, 24 h, Concentration 123.457 nM, three replicates, read-out: Processed reporter response per replicate (reading relative to DMSO)): 131 | fold induction at 0.37037 µM ([1]; Homo sapiens, THP1-Lucia ISG, 24 h, Concentration 370.37 nM, three replicates, read-out: Processed reporter response per replicate (reading relative to DMSO)): 174 | fold induction at 1.11111 µM ([1]; Homo sapiens, THP1-Lucia ISG, 24 h, Concentration 1111.11 nM, three replicates, read-out: Processed reporter response per replicate (reading relative to DMSO)): 204 | fold induction at 3.33333 µM ([1]; Homo sapiens, THP1-Lucia ISG, 24 h, Concentration 3333.33 nM, three replicates, read-out: Processed reporter response per replicate (reading relative to DMSO)): 230 | fold induction at 10 µM ([1]; Homo sapiens, THP1-Lucia ISG, 24 h, Concentration 10000 nM, three replicates, read-out: Processed reporter response per replicate (reading relative to DMSO)): 233 | EC50 ([1]; Homo sapiens, THP1-Lucia ISG, 24 h, three biological replicates, mean ± s.d., read-out: EC50 THP-1): 119 ± 2 nM | Kd ([2]; 25 °C, average of duplicate measurements, read-out: Kd hSTINGwt (binding constant, ITC)): 12 nM | Kd ([2]; ITC run _01, read-out: Kd): 15 nM | Kd ([2]; ITC run _02, read-out: Kd): 8 nM

COc1cc2sc(C(=O)CCC(=O)O)cc2cc1S [Compound N1]
concentration up to which no STING activation was shown (alone) [3]: > 64 µM

B1: human β-glucuronidase (Homo sapiens) (protein)
chain: LQGGMLYPQESPSRECKELDGLWSFRADFSDNRRRGFEEQWYRRPLWESGPTVDMPVPSSFNDISQDWRLRHFVGWVWYEREVILPERWTQDLRTRVVLRIGSAHSYAIVWVNGVDTLEHEGGYLPFEADISNLVQVGPLPSRLRITIAINNTLTPTTLPPGTIQYLTDTSKYPKGYFVQNTYFDFFNYAGLQRSVLLYTTPTTYIDDITVTTSVEQDSGLVNYQISVKGSNLFKLEVRLLDAENKVVANGTGTQGQLKVPGVSLWWPYLMHERPAYLYSLEVQLTAQTSLGPVSDFYTLPVGIRTVAVTKSQFLINGKPFYFHGVNKHEDADIRGKGFDWPLLVKDFNLLRWLGANAFRTSHYPYAEEVMQMCDRYGIVVIDECPGVGLALPQFFNNVSLHHHMQVMEEVVRRDKNHPAVVMWSVANEPASHLESAGYYLKMVIAHTKSLDPSRPVTFVSNSNYAADKGAPYVDVICLNSYYSWYHDYGHLELIQLQLATQFENWYKKYQKPIIQSEYGAETIAGFHQDPPLMFTEEYQKSLLEQYHLGLDQKRRKYVVGELIWNFADFMTEQSPTRVLGNKKGIFTRQRQPKSAAFLLRERYWKIANETRYPHSVAKSQCLENSLFT
notes: purchased AcroBiosystems BEB-H52H3
Km [4]: 319 µM | kcat [4]: 0.48 s⁻¹ | kcat/Km [4]: 1500 M⁻¹ s⁻¹

B2: R232-STING 138-379 (ligand-binding domain of human STING) (domain or fragment, UniProt Q86WV6 138-379, looked up)
chain: GLAPAEISAVCEKGNFNVAHGLAWSYYIGYLRLILPELQARIRTYNQHYNNLLRGAVSQRLYILLPLDCGVPDNLSMADPNIRFLDKLPQQTGDHAGIKDRVYSNSIYELLENGQRAGTCVLEYATPLQTLFAMSQYSQAGFSREDRLEQAKLFCRTLEDILADAPESQNNCRLIAYQEPADDSSFSLSQEVLRHLRQEEKEEVTVGSLKTSAVPSTSTMSQEPELLISGMEKPLPLRTDFS
notes: chains A and B form the dimer; also called STING LBD; hSTING LBD; source: E. coli BL21(DE3), purified (Ni-NTA, TEV cleavage, reverse Ni-NTA, gel filtration)
binding result [5]: binds
